Reference: paper PMC11457037 (Journal of medicinal chemistry, 2023)
pEC50, pIC50: −log10 of the molar value. Where two headings read alike, the source gives them in different places.

Tests used:
EV-D68 = settings: respiratory and neurological disease mouse models; cited from earlier work
five strains of EV-D68 = test: Broad-spectrum antiviral activity, five strains of EV-D68 together; assay type: cell-based, Enterovirus D68
EV-D68 2A^pro [1] = target: T1, EV-D68 2A^pro (Enterovirus D68, UniProt A0A097BW19); test: Enzyme kinetic studies; assay type: biochemical; settings: for Mode of inhibition of EV-D68 2A^pro: from fitting of kinetic curves
[2] = In vivo toxicity, escalating i.p. doses
EV-D68 US/MO/14-18947 [3] = test: Plaque assay, EV-D68 US/MO/14-18947; assay type: cell-based, Enterovirus D68
EV-D68 2A^pro [4] = target: T1, EV-D68 2A^pro; test: FRET-based enzymatic assay; assay type: biochemical
[5] = In vivo snap P.K. in mice; settings: male C57BL/6J mice, 50 mg/kg i.p., 10% DMSO and 90% corn oil
R.D. cells = test: Cytotoxicity, neutral red uptake method in R.D. cells; assay type: cell-based, Human; settings: read-out: Cytotoxicity CC50
EV-D68 US/MO/14-18947 [6] = test: CPE assay with EV-D68 US/MO/14-18947 in R.D. cells; assay type: cell-based, Enterovirus D68; settings: for pEC50: read-out: Antiviral EC50
[7] = system: multiple strains of EV-D68; settings: read-out: EC50 values, multiple strains of EV-D68; viral cytopathic effect assay and plaque assay; cited from earlier work

CCOC(=O)/C=C/[C@H](C[C@@H]1CCNC1=O)NC(=O)[C@@H](CC(=O)[C@@H](NC(=O)c1cc(C)on1)C(C)C)Cc1ccc(F)cc1 [rupintrivir]
therapeutic efficacy in EV-D68 mouse models (EV-D68): none of these antivirals showed therapeutic efficacy

CCOC(=O)c1ccc(OCCC2CCN(c3ccc(C)nn3)CC2)cc1 [pirodavir]
therapeutic efficacy in EV-D68 mouse models (EV-D68): none of these antivirals showed therapeutic efficacy

CC(C)(C)[C@H](NC(=O)CC12CC3CC(CC(C3)C1)C2)C(=O)N1C[C@@H]2CCC[C@@H]2[C@H]1C(=O)N[C@H](C(=O)C(=O)NC1CC1)C1CCCCC1 [Jun11762, (1S,3aR,6aS)-2-((S)-2-(2-((3S,5S,7S)-adamantan-1-yl)acetamido)-3,3-dimethylbutanoyl)-N-((S)-1-cyclohexyl-3-(cyclopropylamino)-2,3-dioxopropyl)octahydrocyclopenta[c]pyrrole-1-carboxamide]
pEC50 (five strains of EV-D68; Enterovirus D, EVD68, read-out: EC50 values over all five strains): 6.57 to 7.37
fold improvement compared to telaprevir, five strains (five strains of EV-D68; five EV-D68 strains): 3.1-4.6 fold
Mode of inhibition of EV-D68 2A^pro (EV-D68 2A^pro [1]): reversible binding
mortality and body weight ([2]; BALB/c mice, i.p. 100 to 400 mg/kg, monitored up to day 16): no mortality or significant body weight loss was observed
tolerated dose ([2]; female, BALB/c, mouse, in vivo, 16 days): up to 400 mg/kg
fold improvement compared to telaprevir, plaque assay EC50 (EV-D68 US/MO/14-18947 [3]): 3 to 4 fold
enzymatic inhibition, comparison in words (EV-D68 2A^pro [4]): comparable enzymatic inhibition and antiviral activity as Jun8861
time plasma concentration was above 4-fold of EC50 value (0.13 μM) [5]: at least 5 h

CCC(C)[C@H](NC(=O)[C@@H]1[C@H]2CCC[C@H]2CN1C(=O)[C@@H](NC(=O)CC12CC3CC(CC(C3)C1)C2)C(C)(C)C)C(=O)C(=O)NC1CC1 (stereo partly drawn) [Jun11756, (1S,3aR,6aS)-2-((S)-2-(2-((3S,5S,7S)-adamantan-1-yl)acetamido)-3,3-dimethylbutanoyl)-N-((3S,4S)-1-(cyclopropylamino)-4-methyl-1,2-dioxohexan-3-yl)octahydrocyclopenta[c]pyrrole-1-carboxamide]
fold improvement compared to telaprevir, plaque assay EC50 (EV-D68 US/MO/14-18947 [3]): 3 to 4 fold
enzymatic inhibition, comparison in words (EV-D68 2A^pro [4]): comparable enzymatic inhibition and antiviral activity as Jun8861

CC(C)S(=O)(=O)n1c(N)nc2ccc(/C(=N/O)c3ccccc3)cc21 [enviroxime]
therapeutic efficacy in EV-D68 mouse models (EV-D68): none of these antivirals showed therapeutic efficacy

(1S,3aR,6aS)-N-((S)-1-(cyclopropylamino)-1,2-dioxohexan-3-yl)-2-((S)-3,3-dimethyl-2-(2-phenylacetamido)butanoyl)octahydrocyclopenta[c]pyrrole-1-carboxamide [Jun8861]
Mode of inhibition of EV-D68 2A^pro (EV-D68 2A^pro [1]): reversible binding
CC50 (R.D. cells): 36.2 µM
pEC50 (EV-D68 US/MO/14-18947 [6]; CPE assay, EV-D68 US/MO/14-18947, R.D. cells): 6.80
pIC50 (EV-D68 2A^pro [4]; read-out: Enzymatic inhibitory activity IC50, EV-D68 2A^pro): 7.10

NC(=O)c1ncn([C@@H]2O[C@H](CO)[C@@H](O)[C@H]2O)n1 [ribavirin]
therapeutic efficacy in EV-D68 mouse models (EV-D68): none of these antivirals showed therapeutic efficacy

COC[C@H](NC(=O)[C@@H]1[C@H]2CCC[C@H]2CN1C(=O)[C@@H](NC(=O)CC12CC3CC(CC(C3)C1)C2)C(C)(C)C)C(=O)C(=O)NC1CC1 [Jun11672, (1S,3aR,6aS)-2-((S)-2-(2-((3S,5S,7S)-adamantan-1-yl)acetamido)-3,3-dimethylbutanoyl)-N-((S)-4-(cyclopropylamino)-1-methoxy-3,4-dioxobutan-2-yl)octahydrocyclopenta[c]pyrrole-1-carboxamide]
antiviral activity, comparison in words (EV-D68 US/MO/14-18947 [6]; CPE assay EV-D68 US/MO/14-18947): not active as Jun8861

CCC[C@H](NC(=O)[C@@H]1[C@H]2CCC[C@H]2CN1C(=O)[C@@H](NC(=O)CC1CCC(F)(F)CC1)C(C)(C)C)C(=O)C(=O)NC1CC1 [Jun975, (1S,3aR,6aS)-N-((S)-1-(cyclopropylamino)-1,2-dioxohexan-3-yl)-2-((S)-2-(2-(4,4-difluorocyclohexyl)acetamido)-3,3-dimethylbutanoyl)octahydrocyclopenta[c]pyrrole-1-carboxamide]
pEC50 (EV-D68 US/MO/14-18947 [6]; Enterovirus D, EVD68, RD): 6.12 to 6.80

Cc1cc(CCCOc2c(C)cc(-c3noc(C(F)(F)F)n3)cc2C)on1 [pleconaril]
therapeutic efficacy in EV-D68 mouse models (EV-D68): none of these antivirals showed therapeutic efficacy

CCC[C@H](NC(=O)[C@@H]1[C@H]2CCC[C@H]2CN1C(=O)[C@@H](NC(=O)CC1CCCCC1)C(C)(C)C)C(=O)C(=O)NC1CC1 [Jun8814, (1S,3aR,6aS)-2-((S)-2-(2-cyclohexylacetamido)-3,3-dimethylbutanoyl)-N-((S)-1-(cyclopropylamino)-1,2-dioxohexan-3-yl)octahydrocyclopenta[c]pyrrole-1-carboxamide]
pEC50 (EV-D68 US/MO/14-18947 [6]; Enterovirus D, EVD68, RD): 6.12 to 6.80

CCC[C@H](NC(=O)[C@@H]1[C@H]2CCC[C@H]2CN1C(=O)[C@@H](NC(=O)[C@@H](NC(=O)c1cnccn1)C1CCCCC1)C(C)(C)C)C(=O)C(=O)NC1CC1 [Telaprevir, telaprevir, reference compound]
kinact (EV-D68 2A^pro [1]): 0.00146 s⁻¹
Mode of inhibition of EV-D68 2A^pro (EV-D68 2A^pro [1]): irreversible covalent inhibitor
pEC50 [7]: 5.72 to 6.40
